Data on one molecule can be found in US7754896B2, “Indol-alanine derivatives as selective S1P4-agonists” (Novartis AG, priority 2004, dated 2010).

In this test the target is T1, S1P4 (Homo sapiens, UniProt O95977).
T1 construct: expressed in transfected cells
T1 sequence (O95977 1-384): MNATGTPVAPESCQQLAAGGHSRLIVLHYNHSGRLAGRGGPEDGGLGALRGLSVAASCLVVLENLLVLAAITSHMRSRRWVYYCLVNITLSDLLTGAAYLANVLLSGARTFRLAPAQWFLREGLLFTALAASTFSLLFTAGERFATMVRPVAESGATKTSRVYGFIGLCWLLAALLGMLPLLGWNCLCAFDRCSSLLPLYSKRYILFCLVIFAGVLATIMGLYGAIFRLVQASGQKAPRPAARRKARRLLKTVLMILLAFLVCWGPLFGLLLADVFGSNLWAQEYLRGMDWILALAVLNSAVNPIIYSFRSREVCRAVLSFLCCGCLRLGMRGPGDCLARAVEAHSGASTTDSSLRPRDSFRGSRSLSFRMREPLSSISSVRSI
Put plainly: EC50 for S1P4 'in this assay' (GTPγS binding or calcium mobilization, not specified). It is filed as cell-based. The settings on record: assay format not specified ('this assay'). On the procedure:
The selection of the clones to be tested in the GTPγS assay is based on the real time PCR assays. CHO clones expressing large amounts of human S1P4 are used in these experiments. Membrane proteins are prepared as described above. The basic protocol of GTPγ^35S-binding assay used is described in a recent publication (Brinkmann et al. 2002, J. Biol. Chem, 277, 21453) with the modifications described here below. To characterize the GTPγ^35S-binding to membrane proteins from CHO cells expressing S1P, WGA coated PVT beads (SPA-bead, Amersham Biosciences) are used. Because β-rays of GTPγ^35S have […] in water solution, the plates are centrifuged to minimize non-specific effects caused by the non bound GTPγ^35S. The assay is performed in 96-well Optiplates (Packard, Cat. N^o 6005190) in final volume of 225 μl/well. […] The plates are then centrifuged for 10 minutes at 2000 rpm and counted with a TopCount instrument (Packard). […]
CHO cells are plated in black Costar plate (96 or 384 well, 50,000 cells or 12,500 cells, respectively) in a MEM with FCS and cultured for 20-24 h at 37° C. in a CO2 incubator. […] After measuring the baseline for 40 sec, the agonist in HBSS is added and the fluorescence is measured at intervals of 2 sec for 3 to 5 min. […]

With `CCc1ccccc1-c1cccc2[nH]c(C(=O)NC[C@@H](N)C(=O)O)cc12` [Example 1, 3-(4-(2-Ethylphenyl)-2-carboxamido-indole)-D-alanine], the EC50 turned out to be 432 nM.
